Consider four compounds from patent publication US20080227774A1, “5,5-DISUBSTITUTED-INDOLIZINONE COMPOUNDS” (priority 2007, published 2008).

The target of this assay is NS5B polymerase (Hepatitis C virus genotype 1b, UniProt P26663). As to the kind of experiment: HCV polymerase inhibition assay (FlashPlate). It counts as biochemical. Particulars: 20 nM enzyme, 75 min at 28° C. On the procedure: Compounds were tested for HCV polymerase inhibition. Assays were performed in a 96-well streptavidin-coated FlashPlate using 20 nM enzyme, 0.5 μCi of [α-^33P]GTP, 0.6 μM GTP, and 250 nM 5′biotinylated oligo (rG13)/poly rC in 20 mM Tris-HCl, pH 7.5, 5 mM MgCl2, 5 mM dithiothreitol, 0.1 g/L bovine serum albumin, and 100 U/ml RNAse inhibitor. The reaction was stopped by aspiration after 75 min at 28° C. and the plate was washed several times. After washing and drying the plate, incorporated radioactivity was counted using a Microbeta scintillation counter. IC50 values were calculated relative to the uninhibited control and inhibition data were fitted to a 4-parameter IC50 equation. For very potent inhibitors, the data were fitted to a tight binding quadratic equation to obtain IC50 values.
Sequence of NS5B polymerase (P26663 2420-3010): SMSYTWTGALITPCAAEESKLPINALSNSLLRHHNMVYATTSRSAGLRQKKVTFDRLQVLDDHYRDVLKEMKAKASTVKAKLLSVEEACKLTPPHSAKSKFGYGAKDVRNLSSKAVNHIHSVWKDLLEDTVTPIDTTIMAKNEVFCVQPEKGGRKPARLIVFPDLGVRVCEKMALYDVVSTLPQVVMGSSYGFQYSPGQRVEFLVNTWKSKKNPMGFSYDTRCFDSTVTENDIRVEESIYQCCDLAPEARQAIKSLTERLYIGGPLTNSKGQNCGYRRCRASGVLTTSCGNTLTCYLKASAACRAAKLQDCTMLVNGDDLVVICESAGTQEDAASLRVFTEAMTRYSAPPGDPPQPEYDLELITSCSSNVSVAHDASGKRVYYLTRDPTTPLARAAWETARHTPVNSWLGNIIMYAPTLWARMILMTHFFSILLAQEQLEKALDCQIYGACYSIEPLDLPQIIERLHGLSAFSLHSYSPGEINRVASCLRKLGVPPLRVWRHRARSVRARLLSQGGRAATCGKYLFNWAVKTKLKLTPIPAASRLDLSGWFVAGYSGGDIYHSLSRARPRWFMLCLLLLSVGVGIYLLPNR

Molecules are shown by their SMILES.

Take `CC(C)CCC1(C)C(=O)C(C2=Nc3ccccc3S(=O)(=O)N2)=C(O)c2cccn21` (stereo not shown) [Example 1, 7-(1,1-Dioxo-1,2-dihydro-1λ^6-benzo[1,2,4]thiadiazin-3-yl)-8-hydroxy-5-methyl-5-(3-methylbutyl)indolizin-6-one]: the IC50 (commonly the concentration that inhibits the measured activity by half) is under 50 µM.
Next, `CC(C)CCC1(C)C(=O)C(C2=NS(=O)(=O)c3cc(NS(C)(=O)=O)ccc3N2)=C(O)c2cccn21` (stereo not shown) [Example 2, N-{3-[8-Hydroxy-5-methyl-5-(3-methylbutyl)-6-oxo-5,6-dihydroindolizin-7-yl]-1,1-dioxo-1,2-dihydro-1λ^6-benzo[1,2,4]thiadiazin-7-yl}methanesulfonamide]: under 50 µM; `C[C@]1(Cc2ccc(F)cc2)C(=O)C(C2=NS(=O)(=O)c3cc(NS(C)(=O)=O)ccc3N2)=C(O)c2cccn21` [Example 3, N-{3-[5-(S)-(4-Fluoro-benzyl)-8-hydroxy-5-methyl-6-oxo-5,6-dihydro-indolizin-7-yl]-1,1-dioxo-1,4-dihydro-1λ^6-benzo[1,2,4]thiadiazin-7-yl}-methanesulfonamide]: under 50 µM; `CC1(Cc2ccc(F)c(Cl)c2)C(=O)C(C2=NS(=O)(=O)c3cc(NS(C)(=O)=O)ccc3N2)=C(O)c2cccn21` (stereo not shown) [Example 4, N-{3-[5-(3-Chloro-4-fluoro-benzyl)-8-hydroxy-5-methyl-6-oxo-5,6-dihydro-indolizin-7-yl]-1,1-dioxo-1,4-dihydro-1λ^6-benzo[1,2,4]thiadiazin-7-yl}-methanesulfonamide]: under 50 µM.
